The record followed here is patent US6984646B2, “Imidazopyridinones as p38 map kinase inhibitors” (Bayer Healhcare AG, priority 2001, dated 2006).

Sequence of p38 map kinase (Q16539 whole entry): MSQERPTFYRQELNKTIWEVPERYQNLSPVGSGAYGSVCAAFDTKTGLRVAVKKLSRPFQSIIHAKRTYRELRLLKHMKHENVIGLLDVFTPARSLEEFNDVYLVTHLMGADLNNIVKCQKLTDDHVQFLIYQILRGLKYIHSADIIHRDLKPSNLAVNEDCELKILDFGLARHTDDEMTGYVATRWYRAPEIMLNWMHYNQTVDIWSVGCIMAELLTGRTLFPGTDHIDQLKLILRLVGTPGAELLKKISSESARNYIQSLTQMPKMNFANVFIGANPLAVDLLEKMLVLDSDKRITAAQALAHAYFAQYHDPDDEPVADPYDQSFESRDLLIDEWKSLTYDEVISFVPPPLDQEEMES

This assay has as its target p38 map kinase (Homo sapiens, UniProt Q16539). Briefly: P38 map kinase assay (SPA). It counts as biochemical. Particulars: SPA [33-P] assay, biotinylated myelin basic protein substrate 2.5 μM, 10 μM ATP, 90 min 30° C. An excerpt:
The assay makes use of the serine/threonine protein kinase SPA [33-P]+assay kit from Amersham Pharmacia Biotech. The assay is a homogeneous technique using SPA technology for the quantification of serine threonine kinase activity.
It is based on the p38 map kinase catalysed transfer of the γ-phosphate group of the [γ-^33P] ATP to the substrate, biotinylated myelin basic protein (MBP). The resulting [^33P]-labelled biotinylated product is trapped on a PVT SPA bead containing scintillant which has been surface coated with streptavidin.
The beads are allowed to settle to eliminate high background, and therefore only ^33P labelled product attached to the SPA bead is detected.
The assay is carried out in the presence and absence of test compounds to determine their effect on p38 map kinase activity.
A Test Protocol is as Follows:
• 1. SPA assay kit (Amersham). Components: • Assay buffer (store frozen) • Stop solution (store frozen) • Streptavidin coated SPA beads—reconstitute with 5 mls of PBS. (50 mg/ml). (Store in fridge) • 2. p38 map kinase enzyme SCRD (500 μg/ml)−aliquoted in 1.5 mls. • dilute 1:10 to 50 μg/ml • 1 plate: −110 μl (stock 500 μg/ml)+[…] PBS. • 3. Assay reagent: • for 1 plate: −504 μl Assay buffer (500 Mm MOPS pH7.2, 10 μM ATP, • 50 mM MgCl2, 25 μM biotinylated myelin basic protein (MBP)). • 2513.4 μl Water • 1.1 μl 33-p-ATP ([…]) (on activity date/adjust for activity date) • 4.534 μl×10^-2M ATP in water • 4. Stop solution: • for 1 plate: −265.92 μl streptavidin coated beads (50 mg/ml) • 1651.68 μl stop buffer (500 μM ATP, 50 mM EDTA 1% Triton X-100) • 7084.32 μl PBS. • 1. Add 10 μcompound Dilutions (5× final conc) Test wells. • 2. Add 10 μl 12.5% DMSO to control/blank wells. • 3. Add 10 μl enzyme (50 μg/ml)−final conc 500 ng/well • 4. Add 10 μPBS to blank wells. • 5. Add 30 μL of assay reagent to each well. (final conc 10 μM ATP, 2.5 μM substrate) • 6. Mix well on plate shaker • 7. Incubate 90 min (30° C.) • 8. Add 75 μl of stop solution to each well (final conc 55 μM ATP) • 9. Spin plate: −3 min/1600 rpm/20° C. (alternatively leave to settle overnight) • 10. Read in Microbeta, Protocol SPA paralux 3.
`O=C(c1ccccc1)c1ccc(=O)n2c1[nH]c1ccccc12` [Example 1, 4-Benzoylpyrido[1,2-a]benzimidazol-1(5H)-one] displayed an IC50 of 518 nM.
The result for `Cc1[nH]c2c(C(=O)c3ccc(F)cc3)ccc(=O)n2c1C` [Example 2, 8-(4-Fluorobenzoyl)-2,3-dimethylimidazo[1,2-a]pyridin-5(1H)-one] reads 329 nM; that for `Cc1[nH]c2c(C(=O)c3ccccc3F)ccc(=O)n2c1C` [Example 3, 8-(2-Fluorbenzoyl)-2,3-dimethylimidazo[1,2-a]pyridin-5(1H)-one], 235 nM.
The result for `O=C(c1ccccc1)c1ccc(=O)n2c3c([nH]c12)CCCC3` [Example 5, 4-Benzoyl-6,7,8,9-tetrahydropyrido[1,2-a]benzimidazol-1(5H)-one] reads 111 nM; that for `O=C(c1ccc(F)cc1F)c1ccc(=O)n2c3c([nH]c12)CCCC3` [Example 38, 4-(2,4-Difluorobenzoyl)-6,7,8,9-tetrahydropyrido[1,2-a]benzimidazol-1(51)-one], 96 nM.

One may read the IC50 as the midpoint of a concentration-inhibition curve. High values mean weaker potency, low ones greater potency.
